Columns and labels:
[1] = test system: HIV-1 (IIIB); test: Antiviral activity against HIV-1; details: MT-2 cells
[2] = biological target: HIV-1 RT (Human immunodeficiency virus type 1 group M subtype B, UniProt P03366); test: In vitro steady-state RT inhibition assay; type: biochemical

## C#CCOc1ccc(OC)cc1CCNC(=S)Nc1ccc(Br)cn1 [6b, N-(5-Bromo-2-pyridinyl)-N′-[2-(5-methoxy-2-propargyloxyphenyl)ethyl]-thiourea]
[1]
  activity relative to HI-236 in cell culture: equal to HI-236

## C#CCCOc1ccc(OC)cc1CCNC(=S)Nc1ccc(Br)cn1 [6c, N-(5-Bromo-2-pyridinyl)-N′-{2-[2-(3-butynyl-1-oxy)-5-methoxyphenyl]ethyl}-thiourea]
[2]
  fold increase in activity compared to HI-236 in the RT assay: 7 fold

## C#CCCCOc1ccc(OC)cc1CCNC(=S)Nc1ccc(Br)cn1 [6d, N-(5-Bromo-2-pyridinyl)-N′-{2-[5-methoxy-2-(4-pentynyl-1-oxy)phenyl]ethyl}-thiourea]
[2]
  activity relative to HI-236 in the RT assay: as active as HI-236

## C#CCOCCOc1ccc(OC)cc1CCNC(=S)Nc1ccc(Br)cn1 [6i]
[1]
  T.I (in vitro therapeutic index CC50/EC50): 100

## COC(=O)COc1ccc(OC)cc1CCNC(=S)Nc1ccc(Br)cn1 [6k, N-(5-Bromo-2-pyridinyl)-N′-[2-(2-methoxycarbonylmethyloxy-5-methoxyphenyl)ethyl]-thiourea]
[2]
  IC50: 100 nM
[2]; RT IC50 versus cell-culture EC50
  fold improvement in RT assay over cell culture: 120 fold

## COc1ccc(OCCCC#N)c(CCNC(=S)Nc2ccc(Br)cn2)c1 [6m]
[1]
  activity relative to HI-236 in cell culture: equal to HI-236

## COc1ccc(OCCCO)c(CCNC(=S)Nc2ccc(Br)cn2)c1 [6o]
[2]
  activity relative to HI-236 in the RT assay: as active as HI-236

Source: publication PMC2639753 (Bioorganic & medicinal chemistry, 2008)
